Measurements from PubChem BioAssay (NCI).
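Assay format: 96-well plates, 48-hour exposure. At the GI50, growth is halved. TGI: concentration producing complete growth inhibition.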

Legend:
Assay in all cases: DTP human tumour cell line panel, 48 h
[1] = test system: 786-0 renal
[2] = test system: A498 renal
[3] = test system: A549 NSCLC
[4] = test system: ACHN renal
[5] = test system: BT-549 breast
[6] = test system: CAKI-1 renal
[7] = test system: CCRF-CEM leukemia
[8] = test system: DU-145 prostate
[9] = test system: EKVX NSCLC
[10] = test system: HCC-2998 colon
[11] = test system: HCT-116 colon
[12] = test system: HCT-15 colon
[13] = test system: HL-60(TB) leukemia
[14] = test system: HOP-62 NSCLC
[15] = test system: HOP-92 NSCLC
[16] = test system: HS 578T breast
[17] = test system: HT29 colon
[18] = test system: IGROV1 ovarian
[19] = test system: K-562 leukemia
[20] = test system: LOX IMVI melanoma
[21] = test system: M14 melanoma
[22] = test system: MALME-3M melanoma
[23] = test system: MCF7 breast
[24] = test system: MDA-MB-231 breast
[25] = test system: MDA-MB-435
[26] = test system: MDA-MB-468 breast
[27] = test system: MOLT-4 leukemia
[28] = test system: NCI-H226 lung
[29] = test system: NCI-H23 lung
[30] = test system: NCI-H460 lung
[31] = test system: NCI-H522 lung
[32] = test system: NCI/ADR-RES ovarian
[33] = test system: OVCAR-3 ovarian
[34] = test system: OVCAR-4 ovarian
[35] = test system: OVCAR-5 ovarian
[36] = test system: OVCAR-8 ovarian
[37] = test system: PC-3 prostate
[38] = test system: RPMI-8226 leukemia
[39] = test system: RXF 393 renal
[40] = test system: SF-295 CNS
[41] = test system: SF-539 CNS
[42] = test system: SK-MEL-2 melanoma
[43] = test system: SK-MEL-5 melanoma
[44] = test system: SK-OV-3 ovarian
[45] = test system: SN12C renal
[46] = test system: SNB-19 CNS
[47] = test system: SNB-75 CNS
[48] = test system: SR leukemia
[49] = test system: SW-620 colon
[50] = test system: T-47D breast
[51] = test system: TK-10 renal
[52] = test system: U251 CNS
[53] = test system: UACC-257 melanoma
[54] = test system: UACC-62 melanoma
[55] = test system: UO-31 renal

O=C(Nc1ccc(OCC(=O)c2ccc(Cl)cc2)cc1)Nc1ccc(Cl)c(C(F)(F)F)c1
GI50 [1]: 5.8 µM | TGI [1]: 26.1 µM | GI50 [2]: 3 µM | TGI [2]: 30 µM | GI50 [3]: 3.69 µM | TGI [3]: > 100 µM | GI50 [4]: 3.75 µM | TGI [4]: > 100 µM | GI50 [5]: 11.5 µM | TGI [5]: 70.3 µM | GI50 [6]: 4.1 µM | TGI [6]: > 100 µM | GI50 [7]: 3.95 µM | TGI [7]: > 100 µM | GI50 [8]: 7.97 µM | TGI [8]: > 100 µM | GI50 [9]: 3.53 µM | TGI [9]: > 100 µM | GI50 [10]: 3.4 µM | TGI [10]: > 100 µM | GI50 [11]: 4.66 µM | TGI [11]: > 100 µM | GI50 [12]: 3.17 µM | TGI [12]: > 100 µM | GI50 [13]: 4.43 µM | TGI [13]: > 100 µM | GI50 [14]: 10.5 µM | TGI [14]: 75.8 µM | GI50 [15]: 4.07 µM | TGI [15]: 42.1 µM | GI50 [16]: 4.44 µM | TGI [16]: > 100 µM | GI50 [17]: 4.75 µM | TGI [17]: > 100 µM | GI50 [18]: 5.85 µM | TGI [18]: > 100 µM | GI50 [19]: 10.4 µM | TGI [19]: > 100 µM | GI50 [20]: 4.41 µM | TGI [20]: 22.2 µM | GI50 [21]: 4.4 µM | TGI [21]: > 100 µM | GI50 [22]: 3.61 µM | TGI [22]: > 100 µM | GI50 [23]: 5.15 µM | TGI [23]: > 100 µM | GI50 [24]: 5.93 µM | TGI [24]: 32 µM | GI50 [25]: 6.7 µM | TGI [25]: > 100 µM | GI50 [26]: 2.97 µM | TGI [26]: > 100 µM | GI50 [27]: 3.6 µM | TGI [27]: > 100 µM | GI50 [28]: 3.16 µM | TGI [28]: > 100 µM | GI50 [29]: 5.83 µM | TGI [29]: 31.1 µM | GI50 [30]: 3.46 µM | TGI [30]: > 100 µM | GI50 [31]: 3.68 µM | TGI [31]: > 100 µM | GI50 [32]: 4.06 µM | TGI [32]: > 100 µM | GI50 [33]: 4.12 µM | TGI [33]: > 100 µM | GI50 [34]: 5.35 µM | TGI [34]: 46.1 µM | GI50 [35]: 7.49 µM | TGI [35]: > 100 µM | GI50 [36]: 7.17 µM | TGI [36]: > 100 µM | GI50 [37]: 2.9 µM | TGI [37]: > 100 µM | GI50 [38]: 3.21 µM | TGI [38]: > 100 µM | GI50 [39]: 3.13 µM | TGI [39]: 9.28 µM | GI50 [40]: 3.8 µM | TGI [40]: 32.4 µM | GI50 [41]: 7.74 µM | TGI [41]: 24.8 µM | GI50 [42]: 2.92 µM | TGI [42]: > 100 µM | GI50 [43]: 6.19 µM | TGI [43]: > 100 µM | GI50 [44]: 14.2 µM | TGI [44]: > 100 µM | GI50 [45]: 6 µM | TGI [45]: > 100 µM | GI50 [46]: 4.62 µM | TGI [46]: 30.1 µM | GI50 [47]: 2.53 µM | TGI [47]: 45.6 µM | GI50 [48]: 13.7 µM | TGI [48]: > 100 µM | GI50 [49]: 4.67 µM | TGI [49]: > 100 µM | GI50 [50]: 3.25 µM | TGI [50]: > 100 µM | GI50 [51]: 15.9 µM | TGI [51]: > 100 µM | GI50 [52]: 5.48 µM | TGI [52]: 25.8 µM | GI50 [53]: 3.55 µM | TGI [53]: > 100 µM | GI50 [54]: 3.28 µM | TGI [54]: > 100 µM | GI50 [55]: 3.44 µM | TGI [55]: > 100 µM
